# Experimental data from publication PMC6749521, “The Effect of Flavonoid Aglycones on the CYP1A2, CYP2A6, CYP2C8 and CYP2D6 Enzymes Activity” (Molecules, 2019).
# Assays:
# [1] = target: T1, CYP1A2 (Homo sapiens, UniProt P05177); assay: CYP1A2 enzyme activity, phenacetin O-deethylation (MDI, TDI, DI assays), recombinant baculosomes
# T1 sequence (P05177 1-516): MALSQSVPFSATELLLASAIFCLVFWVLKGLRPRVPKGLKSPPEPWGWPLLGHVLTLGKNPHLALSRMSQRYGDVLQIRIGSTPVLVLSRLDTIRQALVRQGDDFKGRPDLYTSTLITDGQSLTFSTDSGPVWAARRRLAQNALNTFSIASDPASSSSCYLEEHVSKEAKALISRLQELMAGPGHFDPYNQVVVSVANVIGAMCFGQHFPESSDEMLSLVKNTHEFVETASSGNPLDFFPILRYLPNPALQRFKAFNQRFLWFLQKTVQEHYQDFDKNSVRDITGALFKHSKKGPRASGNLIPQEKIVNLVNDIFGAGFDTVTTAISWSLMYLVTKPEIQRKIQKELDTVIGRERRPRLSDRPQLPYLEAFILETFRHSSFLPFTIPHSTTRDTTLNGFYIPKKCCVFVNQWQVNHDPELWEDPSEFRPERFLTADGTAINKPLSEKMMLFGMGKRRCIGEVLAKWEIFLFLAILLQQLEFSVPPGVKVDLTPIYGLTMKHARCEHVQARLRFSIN
# Method: (§1) The recombinant baculosomes with hyperexpressed cytochromes P450 (1A2, 2A6, 2C8, and 2D6) and coexpressed NADPH cytochrome P450 reductase and cytochrome b5 were used as a source of enzyme. Baculosomes were commercially obtained from Thermo Fisher Scientific (Waltham, MA, USA), and all other chemicals from Sigma-Aldrich if not otherwise indicated. A 1.0 M solution phosphate buffer of pH 7.4 was prepared in house. NADPH generating system was prepared of 0.1 M glucose-6-phosphate, 10 mg mL^−1 NADP^+, and 1000 IU mL^−1 glucose-6-phosphate dehydrogenase in ratio 100:50:2 (v/v/v).
# Phenacetine O-deethylation was used as a marker reaction for monitoring CYP1A2 enzyme activity (Figure 2). Incubations of 100 µL were conducted at the temperature of 37 °C. The pH of the incubation mixture was set at 7.4 using a potassium phosphate buffer (final concentration 50 mM). The total amount of CYP1A2 enzyme was 5 pmol, and the final concentration of substrate was 150 µM. Residual activity was determined by incubating the flavonoid (1 µM) with phenacetine as a substrate for 15 min, with or without preincubation, depending of the type of inhibition assay. Reactions were started by the addition of 15 µL of NADPH generating system, while the reactions were stopped by the addition of 1 mL 1% formic acid in acetonitrile. After centrifugation (10 min, 1900× g), the clear solution was transferred to a vial for HPLC analysis.
# HPLC analysis was performed on Agilent 1100 instrument (Santa Clara, CA, USA) coupled with a diode array detector (DAD) on Luna C18 column (4.6 × 150 mm, 3 μm). The gradient method was used for separation. Mobile phase A consisted of water, acetonitrile, and glacial acetic acid in the volume ratio of 90:10:0.1, while mobile phase B contained the same solvents in the ratio 10:90:0.1. The following gradient timetable was used (t/min, %B): (0, 0), (2, 0), (13, 55), (14, 0), (20, 0). The flow rate was 1 mL/min, and chromatograms were recorded at 254 nm. Volume of incubation injected to the column was 15 µL. […] The amount of generated product (acetaminophen) was determined as the area under the curve based on the calibration curve of the standard.
# (§2) Three types of experiments were conducted to determine metabolism dependent inhibition, time dependent inhibition, and direct inhibition of CYP1A2, CYP2A6, CYP2C8, and CYP2D6 enzymes.
# (§3) To determine metabolism dependent inhibition (MDI assay), the flavonoid was first preincubated with the enzyme with the addition of the generating system for 30 min, after which the marker substrate was added to determine residual enzyme activity (as described above for each enzyme).
# (§4) If metabolism dependent inhibition was determined, time dependent inhibition and direct inhibition were tested. Time dependent inhibition (TDI assay) was assessed by preincubating the flavonoid and enzyme, without the generating system, after which residual activity was determined by adding the NADPH generating system along with the substrate (as described above for each enzyme).
# (§5) The direct inhibition assay (DI assay) was conducted without preincubation, i.e., the NADPH generating system was added to the incubation mixture containing flavonoid and substrate following the experimental set-up described above for each individual cytochrome P450 enzyme.
# (§6) Pure time dependent inhibitors require time to interact with the enzyme. Thus, TDI inhibitors will show a reduction of enzyme activity in assays with preincubations, i.e., the MDI and TDI assays, but not in the DI assay (no preincubation). […] DI inhibitors will reduce enzyme activity in all three assays (MDI, TDI, and DI).
# (§7) All incubations were conducted in triplicate. The results are expressed as the residual activity of the enzyme, i.e., the percentage of product generated in incubation with the addition of flavonoid in ratio to the control without flavonoid.
# [2] = target: T2, CYP2A6 (Homo sapiens, UniProt P11509); assay: CYP2A6 enzyme activity, coumarin 7-hydroxylation (MDI, TDI, DI assays), recombinant baculosomes
# T2 sequence (P11509 1-494): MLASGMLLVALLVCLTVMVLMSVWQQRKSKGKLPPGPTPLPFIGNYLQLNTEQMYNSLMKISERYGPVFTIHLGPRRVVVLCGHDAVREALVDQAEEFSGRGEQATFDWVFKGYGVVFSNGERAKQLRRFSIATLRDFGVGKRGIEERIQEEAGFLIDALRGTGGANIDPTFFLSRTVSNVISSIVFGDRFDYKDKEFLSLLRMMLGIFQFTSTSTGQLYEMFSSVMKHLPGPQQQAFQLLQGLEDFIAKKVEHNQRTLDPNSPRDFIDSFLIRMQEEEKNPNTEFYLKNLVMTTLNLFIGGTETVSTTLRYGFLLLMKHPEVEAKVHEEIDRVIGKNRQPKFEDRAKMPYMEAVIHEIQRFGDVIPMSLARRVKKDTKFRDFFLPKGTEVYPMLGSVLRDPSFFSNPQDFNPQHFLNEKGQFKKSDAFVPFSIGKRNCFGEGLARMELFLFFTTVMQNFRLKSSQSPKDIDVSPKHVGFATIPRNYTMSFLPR
# Method: as §1
# The aromatic hydroxylation of coumarin at the position 7 was used as a marker reaction for CYP2A6. The incubation conditions were the same as for CYP1A2 enzyme (vide supra) unless otherwise stated. The final concentration of coumarin was 10 µM, while the incubation time was extended to 30 min.
# HPLC-DAD analysis was conducted on the same system as the CYP1A2 enzyme with the following modifications: The gradient timetable (t/min, %B) was (0, 20), (1.5, 20), (10, 70), (11, 20), (17, 20), and the detection wavelength was 330 nm. The retention time of the substrate (coumarin) was 7.5 min, while the product (7-hydroxycoumarin) was detected at 4.8 min. The amount of generated product was determined as the area under the curve based on the calibration curve of the standard.
# as §2, §3, §4, §5, §6
# as §7, with “flavonoid. The statistical significance was tested with Student’s t-test in the program R (The R Project for Statistical Computing, Vienna, Austria).” for “flavonoid.”
# [3] = test system: CYP1A2; set-up: method as in ref 28 (Chang et al.); conditions: ref 28 (Chang et al.); read-out: Inhibition constant, competitive inhibition of CYP1A2-mediated 7-ethoxyresorufin O-dealkylation; cited from earlier work
# [4] = test system: CYP3A4; set-up: method as in PMID 30301254; conditions: statistical significance p < 0.1; cited from earlier work
compound,measurement,setting,value
COc1cc(-c2oc3cc(O)cc(O)c3c(=O)c2O)ccc1O [isorhamnetin],Inhibition of CYP1A2 activity,[1]; 1 µM flavonoid,inhibited
same,Type of CYP1A2 inhibition,"[1]; concluded from MDI, TDI, DI assays at 1 µM",reversible inhibitor
same,"activity at 15 min, 1 µM","[1]; human, pH 7.4",8 ± 2%
same,Inhibition of CYP2A6 enzyme activity,[2]; 1 µM flavonoid,inhibited
same,"inhibition at 30 min, 1 µM","[2]; human, pH 7.4",16 ± 5%
same,Ki,[3],140 nM
same,Inhibition of CYP3A4 metabolic activity,[4],inhibition
